# Laboratory results: US4701406A, “Assay for the detection of epigenetic toxic (non-genotoxic) substances” (priority 1984, dated 1987)
# Where two headings read alike, the source gives them in different places.
# How the values were obtained:
# [1] = system: cytoskeletal elements (microtubules and microfilaments) of Swiss 3T3 cells
# [2] = system: cytoskeletal elements (microtubules) of quiescent 3T3 cells
# skin = details: cited from earlier work
# genetic material = details: presently used assays; cited from earlier work
# [3] = Table I; recognized by U.S. Department of Health and Human Services; cited from earlier work
# tubulin = details: in vitro; cited from earlier work
structure (smiles),measurement,setting,value
"O=[N+]([O-])c1ccc(Cl)c([N+](=O)[O-])c1 [CDNB, 1-Chloro-2,4-dinitro-benzene]",Cytoskeletal Perturbation,"[1]; 5.0 × 10^-6 M, 2.0 hrs, FIG. 1g",positive
same,Cytoskeletal Disruption,"[2]; 5 × 10^-6 M, 2 hours, FIG. 2b",positive
same,allergic contact dermatitis,skin,severe allergic contact dermatitis
same,identification by genotoxicity / mutagenicity assays,genetic material,consistently failed to be identified
"[K+].[K+].[O]=[Cr](=[O])([O-])[O][Cr](=[O])(=[O])[O-] [Cr(VI) as K2 Cr2 O7, K2 Cr2 O7]",Cytoskeletal Perturbation,[1],positive
same,Cytoskeletal Disruption,"[2]; 1.2 × 10^-3 M, 3 hours, FIG. 2c",positive
"O=S(=O)([O-])[O-].[Cd+2] [Cd(II) as CdSO4, CdSO4]",Cytoskeletal Perturbation,"[1]; 2.5 × 10^-5 M, 3.0 hrs, FIG. 1c",positive
"O=[N+]([O-])c1ccc(F)c([N+](=O)[O-])c1 [FDNB, fluorodinitrobenzene]",allergic contact dermatitis,skin,severe allergic contact dermatitis
"O=[As][O-].[Na+] [As(III) as NaAsO2, NaAsO2]",Cytoskeletal Perturbation,[1],positive
"O=S(=O)([O-])[O-].[Co+2] [Co(II) as CoSO4, CoSO4]",Cytoskeletal Perturbation,"[1]; 4.0 × 10^-4 M, 17.0 hrs, FIG. 1f",positive
same,Health Hazardous Activity (carcinogen / promoter),[3],Carcinogen
"Nc1ccc(N)cc1 [PPD, P--Phenylene-diamine]",Cytoskeletal Perturbation,"[1]; 5.0 × 10^-4 M, 3.5 hrs, FIG. 1h",positive
same,skin sensitization,skin; human as well as animal studies,potent skin sensitizers
same,Health Hazardous Activity (potent skin sensitizer),skin; identified by skin patch test,sensitizer
same,identification by genotoxicity / mutagenicity assays,genetic material,consistently failed to be identified
CC(=O)O[C@H]1C(=O)[C@@]2(C)[C@H]([C@H](OC(=O)c3ccccc3)[C@]3(O)C[C@H](OC(=O)[C@H](O)[C@@H](NC(=O)c4ccccc4)c4ccccc4)C(C)=C1C3(C)C)[C@]1(OC(C)=O)CO[C@@H]1C[C@@H]2O [taxol],"effectiveness, taxol introduced prior to vs simultaneously with the epigenetic substances",[2]; prior to or simultaneous treatment,no discernible difference in effectiveness
same,Cytoskeletal Disruption,"[2]; taxol alone, 12 × 10^-6 M, 2 hours, FIG. 2h",negative
same,tubulin polymerization,tubulin,promote tubulin polymerization in vitro
"O=S(=O)([O-])[O-].[Ni+2] [Ni(II) as NiSO4, NiSO4]",Cytoskeletal Perturbation,[1],positive
same,Cytoskeletal Disruption,"[2]; 1.5 × 10^-3 M, 3 hours, FIG. 2d",positive
